Assay results: ChEMBL document CHEMBL4665878, “A new naphthalene derivative with anti-amyloidogenic activity as potential therapeutic agent for Alzheimer's disease” (Bioorg Med Chem, 2020)
Activity calls are given as the source filed them. The calls are words filed in the database; no cut-off is given here.

Tests used:
[1] = Ex vivo binding affinity to amyloid beta (1 to 42) in 3xTg-AD transgenic APP/PS1 mouse brain section assessed as binding constant after 40 mins by autoradiography; format: tissue-based
Mus musculus [2] = experiment: Reduction in amyloid beta plaques in po dosed 3xTg-AD transgenic mouse brain hippocampus subiculum using BAM-10 primary antibody by immunohistochemical assay relative to 3xTg-AD-non T; format: functional, organism-based
Astrocyte = experiment: Cytotoxicity against C57BL/J6 mouse astrocyte assessed as cell viability after 24 hrs by MTT assay; format: cell-based
Mus musculus [3] = experiment: Cognitive enhancing effect in 3xTg-AD transgenic mouse harboring human PS1M146V/APPSWE/tauP301L assessed as number of entries to the target quadrant at 1 mg/kg, po for 8 weeks measured by Morris water maze test; format: functional, organism-based
Mus musculus [4] = experiment: Cognitive enhancing effect in female 3xTg-AD transgenic mouse harboring human PS1M146V/APPSWE/tauP301L assessed as time spent in the target quadrant at 1 mg/kg, po for […] by Morris water maze test; format: functional, organism-based; settings: time 8.0 weeks
Mus musculus [5] = experiment: Cognitive enhancing effect in female 3xTg-AD transgenic mouse harboring human PS1M146V/APPSWE/tauP301L assessed as latency to enter to the target quadrant at 1 mg/kg, po for 8 weeks by Morris water maze test; format: functional, organism-based
Mus musculus [6] = experiment: Cognitive enhancing effect in female 3xTg-AD transgenic mouse harboring human PS1M146V/APPSWE/tauP301L assessed as escape latency time at 1 mg/kg, po for 8 weeks by Morris water maze test; format: functional, organism-based
[7] = Octanol/PBS partition co-efficient, log P of compound; format: physicochemical
[8] = molecular target: Amyloid-beta precursor protein (Homo sapiens) (UniProt P05067); experiment: Inhibition of Abeta(1 to 42) peptide aggregation in immortalized human microglia with SV40 assessed as reduction in fluorescence intensity at 1 uM and measured after 48 hrs by thiazine red staining method
Chain of Amyloid-beta precursor protein (Homo sapiens) (P05067 whole entry): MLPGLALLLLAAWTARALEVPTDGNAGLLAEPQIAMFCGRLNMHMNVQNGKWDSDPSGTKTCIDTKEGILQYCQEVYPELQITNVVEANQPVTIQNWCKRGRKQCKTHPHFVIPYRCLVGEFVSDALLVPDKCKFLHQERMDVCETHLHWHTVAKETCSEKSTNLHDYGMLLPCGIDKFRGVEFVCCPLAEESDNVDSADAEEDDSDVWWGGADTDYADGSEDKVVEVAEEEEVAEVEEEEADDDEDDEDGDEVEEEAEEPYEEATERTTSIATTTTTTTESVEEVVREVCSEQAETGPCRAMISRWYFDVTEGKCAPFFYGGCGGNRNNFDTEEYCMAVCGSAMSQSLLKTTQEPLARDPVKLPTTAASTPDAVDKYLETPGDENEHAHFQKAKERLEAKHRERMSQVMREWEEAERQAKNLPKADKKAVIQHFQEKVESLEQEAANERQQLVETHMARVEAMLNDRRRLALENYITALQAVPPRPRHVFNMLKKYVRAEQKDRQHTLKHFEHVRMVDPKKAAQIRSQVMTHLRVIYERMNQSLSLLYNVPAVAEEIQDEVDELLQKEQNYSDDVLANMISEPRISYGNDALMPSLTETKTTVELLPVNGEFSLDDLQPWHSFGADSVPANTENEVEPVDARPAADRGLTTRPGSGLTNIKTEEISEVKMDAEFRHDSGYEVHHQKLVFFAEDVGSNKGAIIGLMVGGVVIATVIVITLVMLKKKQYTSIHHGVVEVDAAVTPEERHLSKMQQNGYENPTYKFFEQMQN

[9] = molecular target: Amyloid-beta precursor protein (Homo sapiens) (UniProt P05067); experiment: Inhibition of Abeta(1 to 42) peptide aggregation in immortalized human microglia with SV40 assessed as reduction in fluorescence intensity at 0.001 to 50 micromol/L and measured after 48 hrs by thiazine red staining method; format: tissue-based; settings: dose micromol/L 0.001-50, time 48.0 hrs
Mus musculus [10] = experiment: Reduction in amyloid fibril elongation in po dosed 3xTg-AD transgenic mouse brain hippocampus subiculum using BAM-10 primary antibody by immunohistochemical assay relative to 3xTg-AD-non T; format: functional, organism-based
[11] = molecular target: Amyloid-beta precursor protein (Homo sapiens) (UniProt P05067); experiment: Inhibition of Abeta(1 to 42) peptide aggregation in immortalized human microglia with SV40 assessed as reduction in fluorescence intensity at 1 nM and measured after 48 hrs by thiazine red staining method; format: tissue-based

| Structure (SMILES) | Kd [1] [µM] | Activity (Mus musculus [2]) | IC50 (Astrocyte) [µM] | Activity (Mus musculus [3]) | Activity (Mus musculus [4]) | Activity (Mus musculus [5]) | Activity (Mus musculus [6]) | logP [7] | inhibition [8] | inhibition [9] | inhibition (Mus musculus [10]) | inhibition [11] |
| --- | --- | --- | --- | --- | --- | --- | --- | --- | --- | --- | --- | --- |
| CNc1ccc(/C=C/c2ccc(OCCOCCOCCF)cc2)cc1 [FLORBETABEN] | 0.016 |  |  |  |  |  |  |  |  |  |  |  |
| CSC(=S)NCCNC(=O)CCC(=O)Nc1cccc2ccccc12 | 0.0158 | Active | 195 | Active | inactive | inactive | inactive | 1.77 | Active | Active | Active |  |
| O=C(O)CCCCCNC(=O)CCC(=O)Nc1cccc2ccccc12 |  |  | 433 |  |  |  |  |  |  | Active |  | Active |
| O=C(O)CCNC(=O)CCC(=O)Nc1cccc2ccccc12 |  |  | 874 |  |  |  |  |  |  | Active |  | Active |
